Where two headings read alike, the source gives them in different places.
Key:
[1] = tested on: patients with opiate dependence; experiment: Clinical detoxification of opiate-dependent patients with decreasing buprenorphine troche doses (microdose protocol)
[2] = cited from earlier work

## COC12CCC3(CC1C(C)(O)C(C)(C)C)C1Cc4ccc(O)c5c4C3(CCN1CC1CC1)C2O5 [Buprenorphine, (2S)-2-[(−)-(5R,6R,7R,14S)-9α-cyclopropylmethyl-4,5-epoxy-6,14-ethanomorphinan-7-yl]-3-hydroxy-6-methoxy-3,3-dimethylbutan-2-ol]
[1]; 2.0 mg dose reduction, experienced or chronic user of narcotic type medications
  withdrawal symptoms after dose reduction: significant withdrawal symptoms
[1]; cut-off of 2.0 mg
  time to return of withdrawal symptoms: ≤ 24 h
[1]; fractional dose of 1.5 mg after a final 3.0 mg dose
  treatment outcome: unsuccessful
[1]; increased number of sub 0.1 mg doses, treatment three or more months
  patients transitioned safely and in a symptomless manner from buprenorphine to the blocker Naltrexone: ~100%
[1]; microdose methods over an extended period, months rather than days or weeks
  completion rate (completion means a narcotic free state): approximately 96%
[1]; previous treatment regimens, doses 8.0 to 3.0 mg
  duration of withdrawal symptoms: three to five days
[1]; serial doses of 0.25 mg
  withdrawal symptoms reported by patients: perceptible and, in some cases, intolerable withdrawal symptoms
[1]; when taken to completion of the dose reduction schedule
  success rate: greater than 90%
[2]; in vivo
  mean half-life: 35 to 37 h
[2]; mean
  elimination half-life (mean): 37 h
[2]; oral administration
  first-pass metabolism: very high
[2]; range
  elimination half-life: 20 to 73 h
[2]; taken sublingually
  mean half-life: 35 to 37 h

## CN1C(=O)CN=C(c2ccccc2)c2cc(Cl)ccc21 [Diazepam]
[1]; outpatients
  observed effect in the early phase of withdrawal: too dis-inhibiting

## O=C1CC[C@@]2(O)[C@H]3Cc4ccc(O)c5c4[C@@]2(CCN3CC2CC2)[C@H]1O5 [Naltrexone]
[1]; Naltrexone administered at 12.5 mg
  return of withdrawal symptoms after the end of buprenorphine treatment: up to five days

— patent US20140100241A1 (priority 2007, published 2014)
